The term melting point denotes the temperature of the solid-liquid transition. In turn, `N#Cc1c(-c2ccc(Oc3cnccn3)cc2)n(C2CCC2)c2cc(OC3CCOCC3)ccc12` [Compound 3168] showed a melting point of 167 to 170 °C. Then `CC(OC(=O)Nc1ccc(-c2c(C#N)c3ccc(OC4CCOCC4)cc3n2C2CCC2)cc1)c1ccccc1` (stereo not drawn) [Compound 2618], with 96 to 98 °C. In turn, `CCNS(=O)(=O)Nc1ccc(-c2c(C#N)c3ccc(OC4CCOCC4)cc3n2C2CCC2)cc1` [Compound 2834] displayed a melting point of 199 to 201 °C. Turning to `Cc1cc(NC(=O)O[C@H](C)C2CC2)ccc1-c1c(C#N)c2ccc(Oc3ncccc3C#N)cc2n1C1CCC1` [Compound 3333], the melting point fell in the range of 108 to 115 °C. In turn, `N#Cc1c(-c2ccc(NC(N)=S)cc2)n(C2CCC2)c2cc(OC3COCOC3)ccc12` [Compound 2846] gave a melting point of 202 to 204 °C. Molecule `N#Cc1c(-c2ccc(N3CCCS3(=O)=O)cc2)n(C2CC2)c2cc(N3CCOCC3)ccc12` [Compound 2927] had a melting point of 260 to 265 °C. `N#Cc1c(-c2ccc(NCc3ccccc3C(F)(F)F)cc2)n(C2CCC2)c2cc(OCCF)ccc12` [Compound 2970] showed a melting point of 183 to 185 °C. Molecule `C[C@@H](OC(=O)Nc1ccc(-c2c(C#N)c3ccc(N4CCCC4)cc3n2C2CCC2)cc1)C(F)(F)F` [Compound 2961] gave a melting point of 246 to 249 °C. As for `CCOc1ccc2c(F)c(-c3ccc(NC(=O)OC(C)C)cc3)n(CC3CC3)c2c1` [compound 2640, [4-(1-Cyclopropylmethyl-6-ethoxy-3-fluoro-1H-indol-2-yl)-phenyl]-carbamic acid isopropyl ester], the melting point lay within 178 to 184 °C. With `CCCS(=O)(=O)Nc1ccc(-c2c(C#N)c3ccc(Oc4nccnc4C#N)cc3n2C2CCC2)cc1` [Compound 3181], the melting point was 218 to 220 °C. The figure for `CCOc1ccc2c(C#N)c(-c3ccc(C(=O)N4CC[C@@H](O)C4)cc3)n(C3CCC3)c2c1` [Compound 2251] is 172 to 173 °C; for `CCn1c(-c2ccc(N3CCCCCC3=O)cc2)c(C#N)c2ccc(OC(C)C)cc21` [Compound 3223] it is 250 to 251 °C; for `CC(C)Nc1ccc(-c2c(C#N)c3ccc(Oc4nccnc4C#N)cc3n2C2CC2)cc1` [Compound 3212] it is 224 to 226 °C.

The molecule `Cc1cccnc1-c1ccc2c(C#N)c(-c3ccc(NC(=O)O[C@H](C)C4CC4)cc3)n(C3CCC3)c2c1` [Compound 2999] came in with a melting point of 226 to 228 °C. In turn, `C[C@@H](OC(=O)Nc1ccc(-c2c(C#N)c3ccc(C(=O)N4CCSCC4)cc3n2C2CCC2)cc1)C1CC1` [Compound 2793] gave a melting point of 148 to 151 °C. Molecule `CS(=O)(=O)Nc1ccc(-c2c(C#N)c3ccc(OC4CCOCC4)cc3n2C2CC2)cc1` [Compound 2911] came in with a melting point of 205 to 207 °C. `CC(C)OC(=O)Nc1ccc(-c2c(C#N)c3ccc(N4CCCC4)cc3n2C2CCC2)cc1` [Compound 2954]: the melting point was 241 to 244 °C. In turn, `N#Cc1c(-c2ccc(NCCCc3ccccc3)cc2)n(C2CCC2)c2cc(OCCF)ccc12` [Compound 3240] returned a melting point of 121 to 124 °C. For the molecule `CC(C)OC(=O)Nc1ccc(-c2c(C#N)c3ccc(OCS(C)(=O)=O)cc3n2C2CC2)cc1` [Compound 3052], the melting point fell in the range of 166 to 187 °C. `COCCOc1ccc2c(C#N)c(-c3ccc(NC(=O)OC(C)C)cc3)n(C(C)C)c2c1` [Compound 2608] came in with a melting point of 153 to 155 °C.

`CC(OC(=O)Nc1ccc(-c2c(C#N)c3ccc(OC4CCOCC4)cc3n2C2CCC2)cc1)C1CC1` (stereo not drawn) [Compound 2615] yielded a melting point of 118 to 120 °C. In turn, `C[C@@H](OC(=O)Nc1ccc(-c2c(C#N)c3ccc(OCCN4C(=O)CN(C)C4=O)cc3n2C2CCC2)cc1)C1CC1` [Compound 3272] yielded a melting point of 79 to 81 °C. Then `N#Cc1c(-c2ccc(OC[C@H]3CCCO3)cc2)n(CC2CC2)c2cc(OC3CCOCC3)ccc12` [Compound 2789], with 133 to 134 °C. The molecule `CC(OC(=O)Nc1ccc(-c2c(C#N)c3ccc(Oc4ncccn4)cc3n2C2CCC2)cc1)c1ccc(F)cc1` (stereo not drawn) [Compound 2708] gave a melting point of 200 to 202 °C. In turn, `CC(C)OC(=O)Nc1ccc(-c2c(C#N)c3ccc(OCCSc4ccccn4)cc3n2C2CCC2)cc1` [Compound 2697] came in with a melting point of 145 to 146 °C. `CC(C)OC(=O)Nc1ccc(-c2c(C#N)c3ccc(Oc4ncccn4)cc3n2C2CCC2)cc1OC(F)(F)F` [Compound 3035]: the melting point lay in the range of 94 to 96 °C. In the case of `N#Cc1nccnc1Oc1ccc2c(C#N)c(-c3ccc(NS(=O)(=O)C4CC4)cc3)n(CC3CC3)c2c1` [Compound 3239], the melting point lay within 193 to 196 °C. On to `CCCS(=O)(=O)Nc1ccc(-c2c(C#N)c3ccc(Oc4ncccc4C#N)cc3n2CC2CC2)c(C)c1` [Compound 3249], for which the melting point was 235 to 239 °C. In turn, `C[C@@H](OC(=O)Nc1ccc(-c2c(C#N)c3ccc(OC4CCOCC4)cc3n2C2CCC2)cc1)C1CC1` [Compound 2696] had a melting point of 126 to 128 °C.

In turn, `CCOc1ccc2c([N+](=O)[O-])c(-c3ccc(NC(=O)OC(C)C)cc3)n(CC3CC3)c2c1[N+](=O)[O-]` [Compound 3093] yielded a melting point of 112 to 119 °C. `N#Cc1c(-c2ccc(NS(=O)(=O)C3CC3)cc2)n(C2CCC2)c2cc(N3CCCCC3)ccc12` [Compound 2983] gave a melting point of 232 to 238 °C.

`CCS(=O)(=O)NCCOc1ccc2c(C#N)c(-c3ccc(NC(=O)OC(C)C4CC4)cc3)n(C3CCC3)c2c1` (stereo not drawn) [Compound 3229] had a melting point of 88 to 91 °C. Regarding `CCn1c(-c2ccc(NC(=O)OC(C)(C)C)cc2)c(C#N)c2ccc(N3CCN(CC4CC4)CC3)cc21` [Compound 1389], the melting point is 171 to 173 °C.

With `CCN(C)C(=O)c1ccc2c(C#N)c(-c3ccc(NS(=O)(=O)C4CC4)cc3)n(C3CCC3)c2c1` [Compound 2296], the melting point was 202 to 205 °C. For the molecule `C[C@@H](OC(=O)Nc1ccc(-c2c(C#N)c3ccc(OC4CCOCC4)cc3n2C2CC2)cc1)c1ccc(F)cc1` [Compound 2869], the melting point was 108 to 111 °C. The molecule `CC(C)S(=O)(=O)Nc1ccc(-c2c(C#N)c3ccc(N4CCCCC4)cc3n2C2CCC2)cc1` [Compound 2968] gave a melting point of 233 to 235 °C. Then `CC(C)OC(=O)Nc1ccc(-c2c(C#N)c3ccc(-n4ccccc4=O)cc3n2C2CCC2)cc1` [Compound 3277], with 267 to 268.5 °C; and `CC1CCN(C(=O)c2ccc3c(C#N)c(-c4ccc(NC(=O)O[C@H](C)C5CC5)cc4)n(C4CCC4)c3c2)CC1` [Compound 3108], with 150 to 153 °C; and `CCCS(=O)(=O)Nc1ccc(-c2c(C#N)c3ccc(Oc4nc(C)ccc4C#N)cc3n2C2CCC2)cc1` [Compound 3309], with 219 to 221 °C.

On to `CCS(=O)(=O)Nc1ccc(-c2c(C#N)c3ccc(OC4CCOCC4)cc3n2C2CCC2)cc1` [Compound 2745], for which the melting point fell in the range of 207 to 209 °C. The molecule `C[C@@H](OC(=O)Nc1ccc(-c2c(C#N)c3ccc(-c4ncccc4[N+](=O)[O-])cc3n2C2CCC2)cc1)C1CC1` [Compound 3247] gave a melting point of 199 to 201 °C. On to `CC(C)OC(=O)Nc1ccc(-c2cc3ccc(Oc4nccnc4C#N)cc3n2CC2CC2)cc1` [Compound 3282], for which the melting point lay within 181 to 182 °C.

The record behind these values is patent US7772271B2 (priority 2004, dated 2010).
